# Data published in patent US20230399320A1, “NOVEL CAPSID ASSEMBLY INHIBITOR” (Pelemed Co., Ltd., priority 2020, published 2023).
# pIC50: −log10 of the molar value. Where two headings read alike, the source gives them in different places.
# Key:
# [1] = molecular target: T1, Cp149 (truncated form of a HBV core protein) (Hepatitis B virus genotype D subtype ayw, UniProt P03146); assay: Protein based assay: immunoblot analysis of in vitro HBV capsid assembly; assay type: biochemical; conditions: for inhibition at 10 µM: read-out: Protein based assay (% inhibition, 10 μM); for inhibition at 0.1 µM: read-out: Protein based assay (% inhibition), 0.1 μM; for inhibition at 1 µM: read-out: Protein based assay (% inhibition), 1 μM
# T1 construct: Cp149 (amino acids 1-149) is a truncated form of a HBV core protein; histidine tag (cleaved yes); made in house; host or cells: Escherichia coli BL21(DE3)
# T1 sequence (P03146 1-149): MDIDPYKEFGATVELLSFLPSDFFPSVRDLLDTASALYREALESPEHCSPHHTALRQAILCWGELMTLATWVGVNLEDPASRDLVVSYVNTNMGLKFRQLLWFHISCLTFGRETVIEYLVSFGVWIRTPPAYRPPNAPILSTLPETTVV
# Protocol: Cp149 (amino acids 1-149) is a truncated form of a HBV core protein. It was expressed in Escherichia coli, and the expressed protein was purified. The recombinant Cp149 was expressed in E. coli BL21(DE3) cells cultured in LB medium at 37° C. When the culture reached an OD600 of 0.7 to 0.8, expression of the culture was induced with 0.5 mM isopropyl-β-d-thiogalactopyranoside and the culture was cooled to 16° C. After 16 hours, the cells were harvested, flash-frozen in liquid nitrogen, and stored at −80° C. To purify Cp149, thawed cells were resuspended in lysis buffer (20 mM Tris-HCl pH 9.0, 200 mM NaCl, 10 mM imidazole, 10 μg per mL DNaseI, 1 mM phenylmethylsulfonyl fluoride), and treated with ultrasonic waves. The supernatant was loaded onto Ni-NTA affinity resin. Proteins were eluted using a 20 mM to 500 mM imidazole gradient dissolved in lysis buffer. After removing the histidine tag with thrombin, the protein was further purified by HiTrap Q anion exchange chromatography (17115401, GE Healthcare).
# To determine the effect on in vitro Cp149 assembly, compounds of the present invention were added to the Cp149-containing suspension. The final concentration of Cp149 was 1 mg per mL, and the compounds of the present invention were added at concentrations of 0.1 to 10 μM. The suspension was mixed with reaction buffer (150 mM HEPES, pH 7.5, 15 mM NaCl) added in a 2:1 ratio. In vitro assembly was performed at 37° C. for 1 hour, and HBV capsid was detected by immunoblot analysis using an anti-HBV core antibody (1:2000, B0586, Dako).
# HBV DNA = assay: Quantitative PCR for measuring HBV DNA in cells (HBV DNA quantification); assay type: cell-based
# Protocol: After treating cells with the indicated compounds, HBV DNA secreted into the medium and intracellular HBV DNA were extracted, purified, and quantified by quantitative PCR. To isolate the secreted HBV DNA, the culture medium was recovered and centrifuged at 15,000×g to remove debris. The medium was diluted 1:1 with phosphate-buffered saline (PBS), and 1 M NaOH solution was added to a final concentration of 0.1 M. The mixture was incubated at 37° C. for 1 hour. The protein was denatured by adding 2M Tris-HCl solution (pH 7.5) to a final concentration of 0.2 M and incubating at 98° C. for 5 minutes. The protein precipitation was removed by centrifugation at 15,000×g, and the supernatant was subjected to PCR with HBV DNA primer and probe sets:
# Forward: 5′-[…]-3′, Reverse: 5′-[…]-3′, Probe: 5′-[…]-3′.
# [2] = read-out: HBV DNA quantification (IC50 μM)
# [3] = Hepatitis B virus; read-out: HBV DNA quantification (IC50 μM)
# [4] = Hepatitis B virus, read-out: HBV DNA quantification (IC50 μM)
# [5] = Hepatitis B virus, read-out: HBV DNA quantification
compound,measurement,setting,value
"6-(4-aminopiperidin-1-yl)-2-(methylsulfonyl)-N-(3,4,5-trifluorophenyl)pyrimidin-4-amine [Compound 26h]","Protein based assay (% inhibition), 0.1 μM",[1]; compound 0.1 μM,29%
same,"Protein based assay (% inhibition), 1 μM",[1]; compound 1 μM,96%
same,IC50,HBV DNA; [2],0.292 µM
"COc1ncccc1C(=O)NCCNc1cc(Nc2ccc(N3CCOCC3)cc2)nc(SC)n1 [Compound 4a, 2-methoxy-N-(2-(2-(methylthio)-6-(4-morpholinophenylamino)pyrimidin-4-ylamino)ethyl)nicotinamide]",pIC50,[1],5.01
same,inhibition at 10 µM,[1],23%
same,IC50,HBV DNA; [3],> 10 µM
"COc1cncc(C(=O)NCCNc2cc(Nc3ccc(N4CCOCC4)cc3)nc(SC)n2)c1 [Compound 4b, 5-methoxy-N-(2-(2-(methylthio)-6-(4-morpholinophenylamino)pyrimidin-4-ylamino)ethyl)nicotinamide]",inhibition at 10 µM,[1],37%
same,IC50,HBV DNA; [3],> 10 µM
"CSc1nc(NCCNC(=O)c2ccc(F)cc2)cc(Nc2ccc(N3CCOCC3)cc2)n1 [Compound 4c, 4-fluoro-N-(2-(2-(methylthio)-6-(4-morpholinophenylamino)pyrimidin-4-ylamino)ethyl)benzamide]",inhibition at 10 µM,[1],0%
same,IC50,HBV DNA; [3],> 10 µM
"CSc1nc(NCCNC(=O)c2ccc(Cl)cc2Cl)cc(Nc2ccc(N3CCOCC3)cc2)n1 [Compound 4d, 2,4-dichloro-N-(2-(2-(methylthio)-6-(4-morpholinophenylamino)pyrimidin-4-ylamino)ethyl)benzamide]",inhibition at 10 µM,[1],0%
same,IC50,HBV DNA; [4],> 10 µM
"COc1ncccc1C(=O)NCCNc1cc(Nc2ccc(N3CCOCC3)cc2)nc([S+](C)[O-])n1 (stereo not drawn) [Compound 5a, 2-methoxy-N-(2-(2-(methylsulfinyl)-6-(4-morpholinophenylamino)pyrimidin-4-ylamino)ethyl)nicotinamide]",pIC50,[1],5.28
same,inhibition at 0.1 µM,[1],43%
same,inhibition at 1 µM,[1],83%
same,inhibition at 10 µM,[1],95%
same,IC50,HBV DNA; [3],0.402 µM
"COc1cncc(C(=O)NCCNc2cc(Nc3ccc(N4CCOCC4)cc3)nc([S+](C)[O-])n2)c1 (stereo not drawn) [Compound 5b, 5-methoxy-N-(2-(2-(methylsulfinyl)-6-(4-morpholinophenylamino)pyrimidin-4-ylamino)ethyl)nicotinamide]",inhibition at 10 µM,[1],78%
same,IC50,HBV DNA; [3],> 10 µM
"C[S+]([O-])c1nc(NCCNC(=O)c2ccc(F)cc2)cc(Nc2ccc(N3CCOCC3)cc2)n1 (stereo not drawn) [Compound 5c, 4-fluoro-N-(2-(2-(methylsulfinyl)-6-(4-morpholinophenylamino)pyrimidin-4-ylamino)ethyl)benzamide]",inhibition at 10 µM,[1],0%
same,IC50,HBV DNA; [3],> 10 µM
"C[S+]([O-])c1nc(NCCNC(=O)c2ccc(Cl)cc2Cl)cc(Nc2ccc(N3CCOCC3)cc2)n1 (stereo not drawn) [Compound 5d, 2,4-dichloro-N-(2-(2-(methylsulfinyl)-6-(4-morpholinophenylamino)pyrimidin-4-ylamino)ethyl)benzamide]",inhibition at 10 µM,[1],0%
same,IC50,HBV DNA; [4],> 10 µM
"COc1ncccc1C(=O)NCCNc1cc(Nc2ccccc2)nc(SC)n1 [Compound 8a, 2-methoxy-N-(2-(2-(methylthio)-6-(phenylamino)pyrimidin-4-ylamino)ethyl)nicotinamide]",inhibition at 10 µM,[1],0%
same,pIC50,HBV DNA; [5],< 5.00
"COc1ncccc1C(=O)NCCNc1cc(Nc2ccc(F)cc2)nc(SC)n1 [Compound 8b, N-(2-(6-(4-fluorophenylamino)-2-(methylthio)pyrimidin-4-ylamino)ethyl)-2-methoxynicotinamide]",inhibition at 10 µM,[1],74%
"COc1ncccc1C(=O)NCCNc1cc(Nc2ccc(Cl)cc2)nc(SC)n1 [Compound 8c, N-(2-(6-(4-chlorophenylamino)-2-(methylthio)pyrimidin-4-ylamino)ethyl)-2-methoxynicotinamide]",inhibition at 10 µM,[1],26%
same,pIC50,HBV DNA; [5],< 5.00
"COc1ncccc1C(=O)NCCNc1cc(Nc2ccc(Br)cc2)nc(SC)n1 [Compound 8d, N-(2-(6-(4-bromophenylamino)-2-(methylthio)pyrimidin-4-ylamino)ethyl)-2-methoxynicotinamide]",inhibition at 10 µM,[1],76%
same,pIC50,HBV DNA; [5],< 5.00
"COc1ncccc1C(=O)NCCNc1cc(Nc2ccc(I)cc2)nc(SC)n1 [Compound 8e, N-(2-(6-(4-iodophenylamino)-2-(methylthio)pyrimidin-4-ylamino)ethyl)-2-methoxynicotinamide]",inhibition at 10 µM,[1],43%
"COc1ncccc1C(=O)NCCNc1cc(Nc2ccc(F)c(F)c2)nc(SC)n1 [Compound 8f, N-(2-(6-(3,4-difluorophenylamino)-2-(methylthio)pyrimidin-4-ylamino)ethyl)-2-methoxynicotinamide]",inhibition at 10 µM,[1],37%
same,pIC50,HBV DNA; [5],< 5.00
"COc1ncccc1C(=O)NCCNc1cc(Nc2ccc(F)cc2Cl)nc(SC)n1 [Compound 8g, N-(2-(6-(2-chloro-4-fluorophenylamino)-2-(methylthio)pyrimidin-4-ylamino)ethyl)-2-methoxynicotinamide]",inhibition at 10 µM,[1],43%
same,pIC50,HBV DNA; [5],< 5.00
"COc1ncccc1C(=O)NCCNc1cc(Nc2ccccc2)nc([S+](C)[O-])n1 (stereo not drawn) [Compound 9a, 2-methoxy-N-(2-(2-(methylsulfinyl)-6-(phenylamino)pyrimidin-4-ylamino)ethyl)nicotinamide]",inhibition at 0.1 µM,[1],14%
same,inhibition at 1 µM,[1],83%
same,IC50,HBV DNA; [4],0.484 µM
"COc1ncccc1C(=O)NCCNc1cc(Nc2ccc(F)cc2)nc([S+](C)[O-])n1 (stereo not drawn) [Compound 9b, N-(2-(6-(4-fluorophenylamino)-2-(methylsulfinyl)pyrimidin-4-ylamino)ethyl)-2-methoxynicotinamide]",inhibition at 0.1 µM,[1],32%
same,inhibition at 1 µM,[1],83%
same,IC50,HBV DNA; [3],0.21 µM
"COc1ncccc1C(=O)NCCNc1cc(Nc2ccc(Cl)cc2)nc([S+](C)[O-])n1 (stereo not drawn) [Compound 9c, N-(2-(6-(4-chlorophenylamino)-2-(methylsulfinyl)pyrimidin-4-ylamino)ethyl)-2-methoxynicotinamide]",inhibition at 0.1 µM,[1],27%
same,inhibition at 1 µM,[1],80%
same,IC50,HBV DNA; [4],0.299 µM
"COc1ncccc1C(=O)NCCNc1cc(Nc2ccc(Br)cc2)nc([S+](C)[O-])n1 (stereo not drawn) [Compound 9d, N-(2-(6-(4-bromophenylamino)-2-(methylsulfinyl)pyrimidin-4-ylamino)ethyl)-2-methoxynicotinamide]",inhibition at 0.1 µM,[1],27%
same,inhibition at 1 µM,[1],82%
same,IC50,HBV DNA; [4],0.177 µM
"CS(=O)(=O)c1nc(Nc2ccc(F)c(Cl)c2)cc(N2C[C@H]3C[C@@H]2CN3)n1 [Compound 29a, 6-((1R,4R)-2,5-diazabicyclo[2.2.1]heptan-2-yl)-N-(3-chloro-4-fluorophenyl)-2-(methylsulfonyl)pyrimidin-4-amine]",IC50,HBV DNA; [4],0.15 µM
"CS(=O)(=O)c1nc(Nc2ccc(F)c(Cl)c2)cc(N2CC3(CNC3)C2)n1 [Compound 29b, N-(3-chloro-4-fluorophenyl)-2-(methylsulfonyl)-6-(2,6-diazaspiro[3.3]heptan-2-yl)pyrimidin-4-amine]",IC50,HBV DNA; [4],0.235 µM
"CS(=O)(=O)c1nc(Nc2ccc(F)c(Cl)c2)cc(N2C[C@@H]3C[C@H]2CN3)n1 [Compound 29c, 6-((1S,4S)-2,5-diazabicyclo[2.2.1]heptan-2-yl)-N-(3-chloro-4-fluorophenyl)-2-(methylsulfonyl)pyrimidin-4-amine]",IC50,HBV DNA; [4],0.428 µM
"CS(=O)(=O)c1nc(Nc2ccc(F)c(Cl)c2)cc(N2C[C@@H]3[C@@H](N)[C@@H]3C2)n1 [Compound 29d, (1R,5S,6s)-3-(6-(3-chloro-4-fluorophenylamino)-2-(methylsulfonyl)pyrimidin-4-yl)-3-azabicyclo[3.1.0]hexan-6-amine]",IC50,HBV DNA; [2],0.769 µM
